Assay results taken from ChEMBL document CHEMBL1151757, “Synthesis, radiosynthesis, and biological evaluation of fluorine-18-labeled 2beta-carbo(fluoroalkoxy)-3beta-(3'-((Z)-2-haloethenyl)phenyl)nortropanes: candidate radioligands for in vivo imaging of the serotonin transporter with positron emission tomography” (J Med Chem, 2008).

Key:
[1] = Drug uptake in anesthetized cynomolgus monkey brain occipital lobe after 6.5 mins postinjection; assay type: ADME, organism-based, Macaca fascicularis; design: unit not given here; details: in vivo
[2] = Drug uptake in anesthetized cynomolgus monkey brain occipital lobe after 125 mins postinjection; assay type: ADME, organism-based, Macaca fascicularis; details: in vivo
[3] = Drug uptake in anesthetized cynomolgus monkey brain occipital lobe after 215 mins postinjection; assay type: ADME, organism-based, Macaca fascicularis; details: in vivo
[4] = Drug uptake in anesthetized cynomolgus monkey brain frontal lobe after 215 mins postinjection; assay type: ADME, organism-based, Macaca fascicularis; details: in vivo
[5] = Drug uptake in anesthetized cynomolgus monkey brain frontal lobe after 235 mins postinjection; assay type: ADME, organism-based, Macaca fascicularis; details: in vivo
[6] = Ratio of drug uptake in pons to cerebellum in anesthetized cynomolgus monkey after 0.5 mins postinjection; assay type: ADME, organism-based, Macaca fascicularis; details: in vivo
[7] = Ratio of drug uptake in occipital lobe to cerebellum in anesthetized cynomolgus monkey after 95 mins postinjection; assay type: ADME, organism-based, Macaca fascicularis; details: in vivo
Putamen [8] = assay: Drug uptake in anesthetized cynomolgus monkey brain putamen after 125 mins postinjection; assay type: ADME, organism-based, Macaca fascicularis; details: in vivo
Putamen [9] = assay: Drug uptake in anesthetized cynomolgus monkey brain putamen after 225 mins postinjection; assay type: ADME, organism-based, Macaca fascicularis; details: in vivo, 3.75 h
[10] = Ratio of drug uptake in frontal lobe to cerebellum in anesthetized cynomolgus monkey after 35 mins postinjection; assay type: ADME, organism-based, Macaca fascicularis; details: in vivo
Pons [11] = assay: Drug uptake in anesthetized cynomolgus monkey brain pons after 0.5 mins postinjection; assay type: ADME, organism-based, Macaca fascicularis; details: in vivo
Pons [12] = assay: Drug uptake in anesthetized cynomolgus monkey brain pons after 18.5 mins postinjection; assay type: ADME, organism-based, Macaca fascicularis; details: in vivo
Pons [13] = assay: Drug uptake in anesthetized cynomolgus monkey brain pons after 35 mins postinjection; assay type: ADME, organism-based, Macaca fascicularis; details: in vivo
Pons [14] = assay: Drug uptake in anesthetized cynomolgus monkey brain pons after 115 mins postinjection; assay type: ADME, organism-based, Macaca fascicularis; details: in vivo
Pons [15] = assay: Drug uptake in anesthetized cynomolgus monkey brain pons after 155 mins postinjection; assay type: ADME, organism-based, Macaca fascicularis; details: in vivo
Pons [16] = assay: Drug uptake in anesthetized cynomolgus monkey brain pons after 215 mins postinjection; assay type: ADME, organism-based, Macaca fascicularis; details: in vivo
Pons [17] = assay: Drug uptake in anesthetized cynomolgus monkey brain pons after 235 mins postinjection; assay type: ADME, organism-based, Macaca fascicularis; details: in vivo
Medulla [18] = assay: Drug uptake in anesthetized cynomolgus monkey brain medulla after 2.5 mins postinjection; assay type: ADME, organism-based, Macaca fascicularis; details: in vivo
Medulla [19] = assay: Drug uptake in anesthetized cynomolgus monkey brain medulla after 3.5 mins postinjection; assay type: ADME, organism-based, Macaca fascicularis; details: in vivo
Medulla [20] = assay: Drug uptake in anesthetized cynomolgus monkey brain medulla after 105 mins postinjection; assay type: ADME, organism-based, Macaca fascicularis; details: in vivo, 1.75 h
[21] = Ratio of drug uptake in putamen to cerebellum in anesthetized cynomolgus monkey after 35 mins postinjection; assay type: ADME, organism-based, Macaca fascicularis; details: in vivo
Medulla [22] = assay: Drug uptake in anesthetized cynomolgus monkey brain medulla after 165 mins postinjection; assay type: ADME, organism-based, Macaca fascicularis; details: in vivo, 2.75 h
[23] = Octanol-water partition coefficient, log P at pH 7.4 by shake-flask method; assay type: physicochemical
[24] = Ratio of drug uptake in putamen to cerebellum in anesthetized cynomolgus monkey after 165 mins postinjection; assay type: ADME, organism-based, Macaca fascicularis; details: in vivo, 2.75 h
[25] = Drug uptake in anesthetized cynomolgus monkey brain cerebellum after 6.5 mins postinjection; assay type: ADME, organism-based, Macaca fascicularis; details: in vivo
[26] = Drug uptake in anesthetized cynomolgus monkey brain cerebellum after 65 mins postinjection; assay type: ADME, organism-based, Macaca fascicularis; details: in vivo
[27] = Drug uptake in anesthetized cynomolgus monkey brain occipital lobe after 0.5 mins postinjection; assay type: ADME, organism-based, Macaca fascicularis; details: in vivo
[28] = Ratio of drug uptake in putamen to cerebellum in anesthetized cynomolgus monkey after 235 mins postinjection; assay type: ADME, organism-based, Macaca fascicularis; details: in vivo
[29] = Ratio of drug uptake in thalamus to cerebellum in anesthetized cynomolgus monkey after 135 mins postinjection; assay type: ADME, organism-based, Macaca fascicularis; details: in vivo, 2.25 h
[30] = Ratio of drug uptake in thalamus to cerebellum in anesthetized cynomolgus monkey after 155 mins postinjection; assay type: ADME, organism-based, Macaca fascicularis; details: in vivo
Caudate [31] = assay: Drug uptake in anesthetized cynomolgus monkey brain caudate after 6.5 mins postinjection; assay type: ADME, organism-based, Macaca fascicularis, Caudate nucleus; details: in vivo
Caudate [32] = assay: Drug uptake in anesthetized cynomolgus monkey brain caudate after 22.5 mins postinjection; assay type: ADME, organism-based, Macaca fascicularis, Caudate nucleus; details: in vivo, 0.375 h
Caudate [33] = assay: Drug uptake in anesthetized cynomolgus monkey brain caudate after 155 mins postinjection; assay type: ADME, organism-based, Macaca fascicularis, Caudate nucleus; details: in vivo
[34] = Ratio of drug uptake in occipital lobe to cerebellum in anesthetized cynomolgus monkey after 12.5 mins postinjection; assay type: ADME, organism-based, Macaca fascicularis; details: in vivo
Thalamus [35] = assay: Drug uptake in anesthetized cynomolgus monkey brain thalamus after 4.5 mins postinjection; assay type: ADME, organism-based, Macaca fascicularis; design: unit not given here; details: in vivo, 0.075 h
Thalamus [36] = assay: Drug uptake in anesthetized cynomolgus monkey brain thalamus after 9.5 mins postinjection; assay type: ADME, organism-based, Macaca fascicularis; design: unit not given here; details: in vivo
Thalamus [37] = assay: Drug uptake in anesthetized cynomolgus monkey brain thalamus after 35 mins postinjection; assay type: ADME, organism-based, Macaca fascicularis; design: unit not given here; details: in vivo
Thalamus [38] = assay: Drug uptake in anesthetized cynomolgus monkey brain thalamus after 45 mins postinjection; assay type: ADME, organism-based, Macaca fascicularis; design: unit not given here; details: in vivo, 0.75 h
Putamen [39] = assay: Drug uptake in anesthetized cynomolgus monkey brain putamen after 6.5 mins postinjection; assay type: ADME, organism-based, Macaca fascicularis; design: unit not given here; details: in vivo
Putamen [40] = assay: Drug uptake in anesthetized cynomolgus monkey brain putamen after 12.5 mins postinjection; assay type: ADME, organism-based, Macaca fascicularis; design: unit not given here; details: in vivo
Putamen [41] = assay: Drug uptake in anesthetized cynomolgus monkey brain putamen after 35 mins postinjection; assay type: ADME, organism-based, Macaca fascicularis; design: unit not given here; details: in vivo
Thalamus [42] = assay: Drug uptake in anesthetized cynomolgus monkey brain thalamus after 55 mins postinjection; assay type: ADME, organism-based, Macaca fascicularis; design: unit not given here; details: in vivo
Thalamus [43] = assay: Drug uptake in anesthetized cynomolgus monkey brain thalamus after 85 mins postinjection; assay type: ADME, organism-based, Macaca fascicularis; design: unit not given here; details: in vivo
Midbrain [44] = assay: Drug uptake in anesthetized cynomolgus monkey brain midbrain after 3.5 mins postinjection; assay type: ADME, organism-based, Macaca fascicularis; design: unit not given here; details: in vivo
Midbrain [45] = assay: Drug uptake in anesthetized cynomolgus monkey brain midbrain after 85 mins postinjection; assay type: ADME, organism-based, Macaca fascicularis; design: unit not given here; details: in vivo
[46] = Ratio of drug uptake in midbrain to cerebellum in anesthetized cynomolgus monkey after 2.5 mins postinjection; assay type: ADME, organism-based, Macaca fascicularis; details: in vivo

## O=C(OCC[18F])C1C2CCC(CC1c1cccc(/C=C\I)c1)N2 (stereo unspecified)
[1]
  Drug uptake: 2
[2]
  Drug uptake: 1.97
[3]
  Drug uptake: 1.28
[4]
  Drug uptake: 1.51
[5]
  Drug uptake: 1.39
[6]
  Ratio: 1.7
[7]
  Ratio: 0.9
Putamen [8]
  Drug uptake: 3.58
Putamen [9]
  Drug uptake: 2.44
[10]
  Ratio: 0.7
Pons [11]
  Drug uptake: 0
Pons [12]
  Drug uptake: 2.91
Pons [13]
  Drug uptake: 3.29
Pons [14]
  Drug uptake: 2.86
Pons [15]
  Drug uptake: 2.5
Pons [16]
  Drug uptake: 2.08
Pons [17]
  Drug uptake: 1.97
Medulla [18]
  Drug uptake: 0.52
Medulla [19]
  Drug uptake: 1.08
Medulla [20]
  Drug uptake: 3.58
[21]
  Ratio: 1.1
Medulla [22]
  Drug uptake: 2.88
[23]
  logD: 1.69
[24]
  Ratio: 1.8
[25]
  Drug uptake: 2.98
[26]
  Drug uptake: 3.23
[27]
  Drug uptake: 0
[28]
  Ratio: 1.8
[29]
  Ratio: 1.8
[30]
  Ratio: 1.8
Caudate [31]
  Drug uptake: 2.02
Caudate [32]
  Drug uptake: 3.32
Caudate [33]
  Drug uptake: 2.62
[34]
  Ratio: 0.7
Thalamus [35]
  Drug uptake: 1.57
Thalamus [36]
  Drug uptake: 3.01
Thalamus [37]
  Drug uptake: 4.2
Thalamus [38]
  Drug uptake: 4.3
Putamen [39]
  Drug uptake: 2.54
Putamen [40]
  Drug uptake: 3.33
Putamen [41]
  Drug uptake: 4.28
Thalamus [42]
  Drug uptake: 4.29
Thalamus [43]
  Drug uptake: 4.04
Midbrain [44]
  Drug uptake: 1.19
Midbrain [45]
  Drug uptake: 4.67
[46]
  Ratio: 1.2
